Assay results taken from patent US20220106595A1, “ANTIBACTERIAL ANTISENSE AGENTS” (priority 2018, published 2022).

Columns and labels:
E. coli (ATCC25922) = test: Urinary tract infection mouse model, E. coli (ATCC25922); format: in vivo; conditions: 48 h post treatment
Method: Efficacy of PED-011 Against E. coli (ATCC25922) in the Urinary Tract Infection Mouse Model
(§1) Female BALB/c mice were infected trans-ureth rally with ˜ 5×10^8 CFU/animal E. coli (ATCC 25922). Four hours post infection animals were treated twice daily (Q12 h) orally with ciprofloxacin at 30 mg/kg and with single IV doses of PED-011 at 10 and 30 mg/kg (u.i.d). Ten animals from each group were terminated at 48 h post treatment, bladder and kidneys were collected to determine the bacterial load.
(§2) The vehicle for Ciprofloxacin was 0.25% of Carboxy Methyl Cellulose (CMC) (w/v) and PBS was used for PED-011. PED-011 was dissolved in PBS at 2 & 6 mg/mL. At four hours post infection, animals were treated with the first oral dose of ciprofloxacin and the single dose of PED-011 (10 and 30 mg/kg, IV, single bolus dose, 5 ml/kg dose volume). Animals received further doses of oral ciprofloxacin as per the dosing schedule.

A. baumannii (ATCC19606) = test: Neutropenic lung infection model in mice, A. baumannii (ATCC19606); format: in vivo; conditions: FIG. 7
E. coli (ATCC BAA-2340) = test: Urinary tract infection mouse model, resistance strain E. coli (ATCC BAA-2340); format: in vivo; conditions: 48 h post treatment
Method: Efficacy of PED-011 Against E. coli (ATCC BAA-2340) in the Urinary Tract Infection Mouse Model; Challenge with a Resistance Strain
as §1, with “trans-urethrally” for “trans-ureth rally”, “˜5×10^8” for “˜ 5×10^8”, “BAA-2340). Twenty-four” for “25922). Four”, “treatment;” for “treatment,”
as §2, with “twenty-four hour” for “four hours”, “were be” for “were”

[1] = system: E. coli (CFT073, ATCC®700928™); test: Urinary tract infection mouse model, uropathogenic E. coli (CFT073, ATCC 700928); format: in vivo
Method: Efficacy of PED-011 Against E. coli (CFT073, ATCC®700928™) in the Urinary Tract Infection Mouse Model; Challenge with a Uropathogenic Strain
Female BALB/c mice were infected trans-urethrally with ˜5×10^8 CFU/animal E. coli (CFT073, ATCC®700928™). Twenty-four hours post infection animals were treated twice daily (Q12 h) orally with ciprofloxacin at 30 mg/kg and with single IV doses of PED-011 at 3, 10 and 30 mg/kg (u.i.d). Ten animals from each group were terminated at 48 h post treatment (72 h post infection); bladder and kidneys were collected to determine the bacterial load.
as §2, with “PBS at 0.6, 2 &” for “PBS at 2 &”, “mg/mL. At twenty-four hours post” for “mg/mL. At four hours post”

[2] = Log D determination (shake-flask, PBS/1-octanol); format: physicochemical; conditions: PBS pH 7.4 / 1-octanol
Method: (v) Log D Determinations:
Log D(PBS) determinations is performed in 96 well microtitre plates using a miniaturised “shake-flask” method. […] The plates are then capped and mixed vigorously for 1 hour on a microtitre plate shaker, after which they were left to stand, allowing the PBS and octanol phases to separate.
Where AUCstd and AUCpbs are the peak areas from the standard and test ion chromatograms respectively.

Molecule: O=C(O)c1cn(C2CC2)c2cc(N3CCNCC3)c(F)cc2c1=O [Ciprofloxacin, reference compound]
- antibacterial effect in bladder (Log10 CFU/g) vs 4 h control and vehicle control (E. coli (ATCC25922); 30 mg/kg, p.o., Q12 h, p<0.05, FIG. 1): significant antibacterial effect
- antibacterial effect in kidneys (Log10 CFU/g) vs 4 h control and vehicle control (E. coli (ATCC25922); 30 mg/kg, p.o., Q12 h, p<0.05, FIG. 2): significant antibacterial effect
- antibacterial effect in lung vs 52 h vehicle control (A. baumannii (ATCC19606); 10 mg/kg, po, Q12 h, p<0.05): significant antibacterial effect
- antibacterial effect in bladder vs 24 h control and vehicle control (E. coli (ATCC BAA-2340); 30 mg/kg, p.o., Q12 h, p<0.05, FIG. 5): significant antibacterial effect
- antibacterial effect in kidneys vs 24 h control and vehicle control (E. coli (ATCC BAA-2340); 30 mg/kg, p.o., Q12 h, p<0.05, FIG. 6): significant antibacterial effect
- bactericidal activity in bladder wrt 24 h PI control and vehicle control ([1]; 30 mg/kg, p.o., b.i.d. Q12h, 72 h post infection, FIG. 3): significant (p<0.05) bactericidal activity
- bactericidal activity in kidney wrt 24 h PI control and vehicle control ([1]; 30 mg/kg, p.o., b.i.d. Q12h, 72 h post infection, p<0.05, FIG. 4): significant bactericidal activity

Molecule: PED-011: Linker-6 (Sugar-L-Ala-NH(CH2)3CO) coupled to PMO PED-1, CTT CGA TAG TG (Sequence ID 57, AcpP) (CTTCGATAGTG; all phosphorodiamidate morpholino (PMO); Linker-6 sugar-L-Ala conjugate attached, position not given here, further chemistry not fully specified)
- Log D7.4 [2]: 0.74
- antibacterial activity in bladder vs 4 h and vehicle control (E. coli (ATCC25922); 10 mg/kg, IV, single dose, FIG. 1): not significantly effective
- antibacterial activity in kidneys vs 4 h PI control and vehicle control (E. coli (ATCC25922); 10 mg/kg, IV, single dose, p<0.05, FIG. 2): significant antibacterial activity
- antibacterial activity in bladder vs 4 h PI control and vehicle control (E. coli (ATCC25922); 30 mg/kg, IV, single dose, p<0.05, FIG. 1): significant antibacterial activity
- antibacterial activity in kidneys vs 4 h PI control and vehicle control (E. coli (ATCC25922); 30 mg/kg, IV, single dose, p<0.05, FIG. 2): significant antibacterial activity
- antibacterial activity in bladder vs 4 h and vehicle control (E. coli (ATCC BAA-2340); 10 mg/kg, IV, single dose, FIG. 5): not significantly effective
- antibacterial activity in kidneys vs 4 h PI control and vehicle control (E. coli (ATCC BAA-2340); 10 mg/kg, IV, single dose, p<0.05, FIG. 6): significant antibacterial activity
- antibacterial activity in bladder vs 24 h PI control and vehicle control (E. coli (ATCC BAA-2340); 30 mg/kg, IV, single dose, FIG. 5): a reduction but not statistically significant antibacterial activity
- antibacterial activity in kidneys vs 24 h PI control and vehicle control (E. coli (ATCC BAA-2340); 30 mg/kg, IV, single dose, p<0.05, FIG. 6): significant antibacterial activity
- antibacterial effect in kidney compared to vehicle control ([1]; 30 mg/kg, IV, 1 dose, p<0.05, FIG. 4): significant effect
- mean bacterial counts in bladder ([1]; 3, 10 and 30 mg/kg, IV, 1 dose, FIG. 3): dose dependent mean reduction in bacterial counts
- antibacterial effect in kidney compared to vehicle control ([1]; 3, 10 and 30 mg/kg, IV, 1 dose, FIG. 4): dose dependent antibacterial effect
- antibacterial effect in bladder wrt vehicle control ([1]; 3, 10 and 30 mg/kg, IV, 1 dose, p>0.05, FIG. 3): did not show significant antibacterial effect

Molecule: PED-012: Linker-6 coupled to PMO PED-2, TCA AAT GAG GC (Sequence ID 91, ftsZ) (TCAAATGAGGC; all phosphorodiamidate morpholino (PMO); Linker-6 conjugate attached at 3' morpholino end, 5' end group not given here, further chemistry not fully specified)
- antibacterial activity in lung vs vehicle control at 52 h PI (A. baumannii (ATCC19606); 10 mg/kg, IN, single dose, p>0.05): not significantly effective
- antibacterial activity in lung vs 52 h vehicle control (A. baumannii (ATCC19606); 30 mg/kg, IN, single dose, p<0.05): significant antibacterial activity
